The test is described as follows: venous thrombosis (venous stasis under hypercoagulation with activated factor X, Wessler technique). Type of test: in vivo, male Wistar rats. The conditions noted are these: po, administered orally, rat, thrombosis induced 4 hours after treatment, thrombus weighed. Here is the method: The study is performed on unfasted male Wistar rats weighing 250 to 280 g, divided up into groups of 10 animals each. The test products are administered orally as a suspension in PEG 400. A thrombosis is induced 4 hours after this treatment and the thrombus formed is removed and weighed.

Drawing on patent publication US5169838A, “Benzopyranone-β-D-thioxylosides and their use in therapy” (Fournier Industrie et Sante, priority 1989, dated 1992), this text covers inhibition in vivo for 36 compounds.

`CC(=O)O[C@@H]1[C@@H](OC(C)=O)[C@H](OC(C)=O)CS[C@H]1Oc1ccc2c(=O)cc(C)oc2c1` [Example 20a, 2-methyl-4-oxo-4H-1-benzopyran-7-yl 2,3,4-tri-O-acetyl-5-thio-β-D-xylopyranoside]: the inhibition in vivo at 3 mg/kg amounted to 20%.

As for `CC(=O)O[C@@H]1[C@@H](OC(C)=O)[C@H](OC(C)=O)CS[C@H]1Oc1cccc2c(C)cc(=O)oc12` [Example 4a, 4-methyl-2-oxo-2H-1-benzopyran-8-yl 2,3,4-tri-O-acetyl-5-thio-β-D-xylopyranoside], the inhibition in vivo at 3 mg/kg amounted to 51%. Compound `Cc1oc2cc(O[C@@H]3SC[C@@H](O)[C@H](O)[C@H]3O)ccc2c(=O)c1Br` [Example 28, 3-bromo-2-methyl-4-oxo-4H-1-benzopyran-7-yl 5-thio-β-D-xylopyranoside] came in with an inhibition in vivo at 3 mg/kg of 49%. The compound `CC(=O)O[C@@H]1[C@@H](OC(C)=O)[C@H](Sc2ccc3c(C)cc(=O)oc3c2)SC[C@H]1OC(C)=O` [Example 8a, 4-methyl-2-oxo-2H-1-benzopyran-7-yl 2,3,4-tri-O-acetyl-1,5-dithio-β-D-xylopyranoside] yielded an inhibition in vivo at 3 mg/kg of 65%. Compound `Cc1c(Cl)c(=O)oc2cc(O[C@@H]3SC[C@@H](O)[C@H](O)[C@H]3O)ccc12` [Example 17, 3-chloro-4-methyl-2-oxo-2H-1-benzopyran-7-yl 5-thio-β-D-xylopyranoside] yielded an inhibition in vivo at 3 mg/kg of 64%. Consider `CC(=O)O[C@@H]1[C@@H](OC(C)=O)[C@H](Sc2ccc3oc(=O)cc(C)c3c2)SC[C@H]1OC(C)=O` [Example 10a, 4-methyl-2-oxo-2H-1-benzopyran-6-yl 2,3,4-tri-O-acetyl-1,5-dithio-β-D-xylopyranoside], for which 3 mg/kg produced 32% inhibition in vivo. In turn, `CCc1cc(=O)oc2cc(S[C@@H]3SC[C@@H](OC(C)=O)[C@H](OC(C)=O)[C@H]3OC(C)=O)ccc12` [Example 13a, 4-ethyl-2-oxo-2H-1-benzopyran-7-yl 2,3,4-tri-O-acetyl-1,5-dithio-β-D-xylopyranoside] displayed an inhibition in vivo at 3 mg/kg of 58%. `Cc1cc(=O)oc2c(S[C@@H]3SC[C@@H](O)[C@H](O)[C@H]3O)cccc12` [Example 9, 4-methyl-2-oxo-2H-1-benzopyran-8-yl 1,5-dithio-β-D-xylopyranoside] displayed an inhibition in vivo at 3 mg/kg of 31%. With `CC(=O)O[C@@H]1[C@@H](OC(C)=O)[C@H](OC(C)=O)CS[C@H]1Oc1ccc2c(C)cc(=O)oc2c1` [Example 16a, 4-methyl-2-oxo-2H-1-benzopyran-7-yl 2,3,4-tri-O-acetyl-5-thio-β-D-xylopyranoside], the inhibition in vivo at 3 mg/kg was determined as 63%. In turn, `CCc1cc(=O)c2ccc(S[C@@H]3SC[C@@H](OC(C)=O)[C@H](OC(C)=O)[C@H]3OC(C)=O)cc2o1` [Example 27a, 2-ethyl-4-oxo-4H-1-benzopyran-7-yl 2,3,4-tri-O-acetyl-1,5-dithio-β-D-xylopyranoside] returned an inhibition in vivo at 3 mg/kg of 23%.

In the case of `Cc1cc(=O)oc2cc(O[C@@H]3SC[C@@H](O)[C@H](O)[C@H]3O)ccc12` [Example 16, 4-methyl-2-oxo-2H-1-benzopyran-7-yl 5-thio-β-D-xylopyranoside], the inhibition in vivo at 3 mg/kg amounted to 63%. Regarding `Cc1cc(=O)oc2ccc(O[C@@H]3SC[C@@H](O)[C@H](O)[C@H]3O)cc12` [Example 2, 4-methyl-2-oxo-2H-1-benzopyran-6-yl 5-thio-β-D-xylopyranoside], the inhibition in vivo at 3 mg/kg amounted to 81%.

The compound `Cc1cc(=O)c2cc(O[C@@H]3SC[C@@H](O)[C@H](O)[C@H]3O)ccc2o1` [Example 24, 2-methyl-4-oxo-4H-1-benzopyran-6-yl 5-thio-β-D-xylopyranoside] showed an inhibition in vivo at 3 mg/kg of 36%. In the case of `CC(=O)O[C@@H]1[C@@H](OC(C)=O)[C@H](OC(C)=O)CS[C@H]1Oc1ccc2c(C(F)(F)F)cc(=O)oc2c1` [Example 3a, 4-trifluoromethyl-2-oxo-2H-1-benzopyran-7-yl 2,3,4-tri-O-acetyl-5-thio-β-D-xylopyranoside], the inhibition in vivo at 3 mg/kg was determined as 47%.

`CC(=O)O[C@@H]1[C@@H](OC(C)=O)[C@H](Sc2ccc3c4c(c(=O)oc3c2)CCCC4)SC[C@H]1OC(C)=O` [Example 15a, 7,8,9,10-tetrahydro-6-oxo-6H-dibenzo[b,d]pyran-3-yl 2,3,4-tri-O-acetyl-1,5-dithio-β-D-xylopyranoside]: 3 mg/kg produced 23% inhibition in vivo. In the case of `CCCc1cc(=O)oc2cc(S[C@@H]3SC[C@@H](OC(C)=O)[C@H](OC(C)=O)[C@H]3OC(C)=O)ccc12` [Example 14a, 2-oxo-4-propyl-2H-1-benzopyran-7-yl 2,3,4-tri-O-acetyl-1,5-dithio-β-D-xylopyranoside], the inhibition in vivo at 3 mg/kg is 25%. Then `CC(C)c1cc(=O)oc2cc(O[C@@H]3SC[C@@H](O)[C@H](O)[C@H]3O)ccc12` [Example 19, 4-(1-methylethyl)-2-oxo-2H-1-benzopyran-7-yl 5-thio-β-D-xylopyranoside], with 36%. In the case of `Cc1c(-c2ccccc2)c(=O)oc2cc(O[C@@H]3SC[C@@H](O)[C@H](O)[C@H]3O)ccc12` [Example 18, 4-methyl-2-oxo-3-phenyl-2H-1-benzopyran-7-yl 5-thio-β-D-xylopyranoside], the inhibition in vivo at 3 mg/kg was found to be 43%.

`CCc1cc(=O)oc2cc(S[C@@H]3SC[C@@H](O)[C@H](O)[C@H]3O)ccc12` [Example 13, 4-ethyl-2-oxo-2H-1-benzopyran-7-yl 1,5-dithio-β-D-xylopyranoside]: the inhibition in vivo at 3 mg/kg came to 54%. As for `CCc1cc(=O)oc2cc(O[C@@H]3SC[C@@H](OC(C)=O)[C@H](OC(C)=O)[C@H]3OC(C)=O)ccc12` [Example 1a, 4-ethyl-2-oxo-2H-1-benzopyran-7-yl 2,3,4-tri-O-acetyl-5-thio-β-D-xylopyranoside], the inhibition in vivo at 3 mg/kg stood at 65%. The compound `Cc1c(Cl)c(=O)oc2cc(S[C@@H]3SC[C@@H](O)[C@H](O)[C@H]3O)ccc12` [Example 12, 3-chloro-4-methyl-2-oxo-2H-1-benzopyran-7-yl 1,5-dithio-β-D-xylopyranoside] gave an inhibition in vivo at 3 mg/kg of 65%. As to `Cc1cc(=O)c2ccc(S[C@@H]3SC[C@@H](O)[C@H](O)[C@H]3O)cc2o1` [Example 23, 2-methyl-4-oxo-4H-1-benzopyran-7-yl 1,5-dithio-β-D-xylopyranoside], the inhibition in vivo at 3 mg/kg was determined as 26%. As for `CC(=O)O[C@@H]1[C@@H](OC(C)=O)[C@H](OC(C)=O)CS[C@H]1Oc1ccc2c(=O)c(C)c(C)oc2c1` [Example 22a, 2,3-dimethyl-4-oxo-4H-1-benzopyran-7-yl 2,3,4-tri-O-acetyl-5-thio-β-D-xylopyranoside], the figure is 66%. Turning to `CC(=O)O[C@@H]1[C@@H](OC(C)=O)[C@H](OC(C)=O)CS[C@H]1Oc1ccc2oc(=O)cc(C)c2c1` [Example 2a, 4-methyl-2-oxo-2H-1-benzopyran-6-yl 2,3,4-tri-O-acetyl-5-thio-β-D-xylopyranoside], at 3 mg/kg the inhibition in vivo was 53%. Take `Cc1cc(=O)oc2c(O[C@@H]3SC[C@@H](O)[C@H](O)[C@H]3O)cccc12` [Example 4, 4-methyl-2-oxo-2H-1-benzopyran-8-yl 5-thio-β-D-xylopyranoside]: the inhibition in vivo at 3 mg/kg came out at 52%. `CC(=O)O[C@@H]1[C@@H](OC(C)=O)[C@H](OC(C)=O)CS[C@H]1Oc1ccc2c(=O)c(Br)c(C)oc2c1` [Example 28a, 3-bromo-2-methyl-4-oxo-4H-1-benzopyran-7-yl 2,3,4-tri-O-acetyl-5-thio-β-D-xylopyranoside]: the inhibition in vivo at 3 mg/kg stood at 25%. `CC(=O)O[C@@H]1[C@@H](OC(C)=O)[C@H](Sc2ccc3c(C)c(Cl)c(=O)oc3c2)SC[C@H]1OC(C)=O` [Example 12a, 3-chloro-4-methyl-2-oxo-2H-1-benzopyran-7-yl 2,3,4-tri-O-acetyl-1,5-dithio-β-D-xylopyranoside] showed an inhibition in vivo at 3 mg/kg of 32%.

In the case of `O=c1cc(C(F)(F)F)c2ccc(O[C@@H]3SC[C@@H](O)[C@H](O)[C@H]3O)cc2o1` [Example 3, 4-trifluoromethyl-2-oxo-2H-1-benzopyran-7-yl 5-thio-β-D-xylopyranoside], the inhibition in vivo at 3 mg/kg worked out at 80%. `CCc1cc(=O)oc2cc(O[C@@H]3SC[C@@H](O)[C@H](O)[C@H]3O)ccc12` [Example 1, 4-ethyl-2-oxo-2H-1-benzopyran-7-yl 5-thio-β-D-xylopyranoside] yielded an inhibition in vivo at 3 mg/kg of 87%. The compound `O=c1oc2cc(S[C@@H]3SC[C@@H](O)[C@H](O)[C@H]3O)ccc2c2c1CCCC2` [Example 15, 7,8,9,10-tetrahydro-6-oxo-6H-dibenzo[b,d]pyran-3-yl 1,5-dithio-β-D-xylopyranoside] gave an inhibition in vivo at 3 mg/kg of 31%. Consider `Cc1cc(=O)oc2ccc(S[C@@H]3SC[C@@H](O)[C@H](O)[C@H]3O)cc12` [Example 10, 4-methyl-2-oxo-2H-1-benzopyran-6-yl 1,5-dithio-β-D-xylopyranoside], for which the inhibition in vivo at 3 mg/kg came to 37%. `CCc1cc(=O)c2ccc(S[C@@H]3SC[C@@H](O)[C@H](O)[C@H]3O)cc2o1` [Example 27, 2-ethyl-4-oxo-4H-1-benzopyran-7-yl 1,5-dithio-β-D-xylopyranoside] displayed an inhibition in vivo at 3 mg/kg of 26%. Consider `CCCc1cc(=O)oc2cc(O[C@@H]3SC[C@@H](OC(C)=O)[C@H](OC(C)=O)[C@H]3OC(C)=O)ccc12` [Example 5a, 2-oxo-4-propyl-2H-1-benzopyran-7-yl 2,3,4-tri-O-acetyl-5-thio-β-D-xylopyranoside], for which testing at 3 mg/kg gave an inhibition in vivo of 46%.

Turning to `O=c1cc(-c2ccccc2)oc2cc(O[C@@H]3SC[C@@H](O)[C@H](O)[C@H]3O)ccc12` [Example 25, 4-oxo-2-phenyl-4H-1-benzopyran-7-yl 5-thio-β-D-xylopyranoside], at 3 mg/kg the inhibition in vivo was 28%. Then `Cc1oc2cc(O[C@@H]3SC[C@@H](O)[C@H](O)[C@H]3O)ccc2c(=O)c1C` [Example 22, 2,3-dimethyl-4-oxo-4H-1-benzopyran-7-yl 5-thio-β-D-xylopyranoside], with 36%.

`Cc1cc(=O)oc2cc(S[C@@H]3SC[C@@H](O)[C@H](O)[C@H]3O)ccc12` [Example 8, 4-methyl-2-oxo-2H-1-benzopyran-7-yl 1,5-dithio-β-D-xylopyranoside] had an inhibition in vivo at 3 mg/kg of 46%.

For orientation: inhibition in vivo means the percentage by which the read-out fell short of the control. The low end stands for a response near the control, the high end for a response far below the control.
